Source: patent US20250162973A1, “METHODS OF SYNTHESIS AND USES OF AGRIMOL COMPOUNDS” (Versitech Limited, priority 2022, published 2025)
Where two headings read alike, the source gives them in different places.

Experiments:
[1] = tested on: human cancer cell lines (MDA-MB-231, MCF-7, HepG2, HeLa, AGS, HCT116, SW480, SUNE-1, H460, HCC827, H1650, A549); assay: MTT cell viability assay, panel of human cancer cell lines; assay type: cell-based; conditions: Homo sapiens
Experimental: SUNE1 (nasopharyngeal carcinoma), AGS (gastric adenocarcinoma), HeLa (cervix adenocarcinoma), HepG2 (hepatocellular carcinoma), U-87 MG (human glioblastoma cell), U2OS (osteosarcoma), MCF-7 (breast adenocarcinoma), MDA-MB-231 (breast adenocarcinoma), HCT116 (colorectal carcinoma), SW480 (colorectal adenocarcinoma), NCI-H460 (large cell lung carcinoma), NCI-H1650 (adenocarcinoma lung carcinoma), HCC827 (adenocarcinoma lung carcinoma), A549 (lung carcinoma), and CCD-19Lu (human lung fibroblast normal cell) were all obtained from American Type Culture Collection (ATCC, Manassas, VA, USA). Minimum Essential Media (MEM, Gibco®, ThermoFisher Scientific), Dulbecco's Modified Eagle Medium (DMEM, Gibco®, ThermoFisher Scientific), and RPMI-1640 Medium (Gibco®, ThermoFisher Scientific) supplemented with 10% Fetal Bovine Serum (Gibco®, ThermoFisher Scientific), and 100 U/mL penicillin-streptomycin (Gibco™, ThermoFisher Scientific) were used for cell culture. Cells were placed into an incubator with 5% CO2 that temperature was set at 37° C. For subculturing cells, 0.05% Trypsin-EDTA (Gibco®) was used for detaching and a subcultivation ratio of 1:5 was used.
The cell viability assay was performed by a typical MTT assay. Briefly, 5*10^3 cells were seeded in the 96-well flat bottom plate and allowed to attach overnight. After drug treatment with a serial dilution from 100 μM for 48 h, 10 μL of MTT solution (5 mg/ml prepared in PBS, filtered) was added into each well and incubate for 4 h at 37° C. The formed formazan was then dissolved with SDS solution (10% SDS in 10 mM HCl) and followed the determination of absorbance at 590 nm by a microplate reader. The change in cell viability was then calculated for each drug concentration, then normalized to control. Dose response curves from each assay were fit to a Boltzmann sigmoidal function (GraphPad Prism8, version8.0.0). The cytotoxicity of AGB and its derivatives was determined by the calculation of IC50 value (half maximal inhibitory concentration) from fitted curves, which was the concentration of drug induced 50% cell viability.

NCI-H460 spheres = assay: Sphere formation assay (tumorsphere self-renewal); assay type: cell-based; conditions: Homo sapiens, read-out: tumorsphere forming efficiency, inhibition; for inhibition at 1 µM: 1.0 μM AGB
Experimental: NCI-H460 cells were seeded at 3,000 cells/ml per well in specific sphere formation medium (DMEM/F12 supplemented with 20 ng/ml EGF, 20 ng/ml bFGF and 1×B-27) with or without AGB (DMSO as vehicle, 0.5 and 1.0 μM of AGB for the assay) in a 6-well Ultra Low Cluster Plate (Costar®). The concentration of DMSO was normalized to 0.5% in all wells and was 0.5%. The cells were incubated at 37° C. for five days and the spheres were photographed under an inverted microscope at 40× magnification. Primary tummorsphere were collected and enzymatically dissociated using trypsin to generate the secondary tummorsphere. The dissociated cells were re-plated at a density of 2,000 cells/mL for subsequent passages. The images were captured and four fields were randomly chosen and the relative areas occupied by the spheres were measured using ImageJ (National Institutes of Health, Bethesda, MD). Representative images were obtained from three independent experiments.

NCI-H460 xenograft = assay: Human tumor xenograft model; assay type: in vivo, BALB/c nude mice; conditions: AGB 3 mg/kg, tail intravenous injection
Experimental: In vivo anticancer efficacy of AGB was evaluated using the human tumor xenograft model, in which human cancer cells were inoculated into immune-deficiency mice. Briefly, twelve six-week-old (16-18 g) BALB/c nude mice were randomly divided into two groups and both received subcutaneous injection of NCI-H460 cells (2 million cells in 0.1 mL PBS) at its right flank of mice and tumor became palpable after three days of injection. Mice were received intravenous (i.v.) injections of AGB or vehicle control (10% DMSO and 0.05% Tween 80 in normal saline) every two days in two weeks. The length and width of tumor were measured by Vernier caliper and the body weight was monitored every two or three days. At the end of experiment, mice were sacrificed and decapitated. The liver, kidney, and tumor were collected and fixed in 4% formaldehyde for further haematoxylin and eosin (H&E) staining. All animal experiments in this project received human care and study protocols complied with the guidelines of the Laboratory Animal Services Centre of the University of Hong Kong. Tumor sizes and body weight were recorded before the drug injection every time and tumor volume (V) was calculated by the formula V=LW^2/2, where L is tumor length and W is tumor width. […]
The in vivo antitumor potential of AGB using the xenograft mouse model was assessed. […]

TALDO1 = target: T1, TALDO1 (Homo sapiens, UniProt P37837); assay: Targeted metabolomics of PPP intermediates and intracellular NADPH; assay type: cell-based; conditions: after treatment of AGB
T1 construct: endogenous in cells
T1 sequence (P37837 1-337): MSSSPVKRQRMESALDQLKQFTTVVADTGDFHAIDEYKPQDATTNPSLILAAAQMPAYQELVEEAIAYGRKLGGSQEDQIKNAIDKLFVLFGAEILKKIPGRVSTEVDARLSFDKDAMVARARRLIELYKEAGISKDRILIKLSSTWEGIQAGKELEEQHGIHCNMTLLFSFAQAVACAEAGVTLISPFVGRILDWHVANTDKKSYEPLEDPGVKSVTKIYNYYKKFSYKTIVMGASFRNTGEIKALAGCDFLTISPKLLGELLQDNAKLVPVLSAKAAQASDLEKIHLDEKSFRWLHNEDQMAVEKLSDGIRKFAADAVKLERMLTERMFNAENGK
Experimental: TALDO1 is a key enzyme of the nonoxidative PPP providing ribose-5-phosphate for nucleic acid synthesis and NADPH (the reduced form of Nicotinamide adenine dinucleotide phosphate) for lipid biosynthesis. Targeted metabolomics analysis was performed for measuring of the intermediate metabolites involved in the PPP pathway. […] PPP activation has been widely found in different types of cancer because of the uncontrolled proliferation of cancer cells. […] Moreover, enhanced production of NADPH is crucial to increase the intracellular redox power of cancer cells to escape from oxidative stress.

Molecule `CCCC(=O)c1c(O)c(Cc2c(O)c(Cc3c(O)c(C)c(OC)c(C(=O)CCC)c3O)c(O)c(C(=O)[C@@H](C)CC)c2O)c(O)c(C)c1OC` [AGB, Agrimol B] has an IC50 ([1]; 48-h treatment, range over tested cancer cell lines, read-out: IC50 values for the tested cancer cell lines) of 1.83 to 5.81 µM, an IC50 ([1]; MTT assay, cancer cells, read-out: IC50 values against cancer cells) of less than 10 µM and an inhibition at 1 µM (NCI-H460 spheres; NCI-H460, primary tumorspheres) of 40.6%. The inhibition at 0.5 µM (NCI-H460 spheres; NCI-H460, secondary tumorspheres, 0.5 μM AGB) was 54.7%, the inhibition at 1 µM (NCI-H460 spheres; NCI-H460, secondary tumorspheres) was 69.7% and the “tumor growth inhibition rate” value (NCI-H460 xenograft) was 57%. The PPP intermediate metabolites (TALDO1) was “significantly decreased” and the “intracellular content of NADPH” value (TALDO1) was “significant decrease”.
